Experiment [1] addresses T1, Gal-1 (Galectin-1) (Homo sapiens, UniProt P09382). In words: Isothermal titration calorimetry, binding to Gal-1. The following applies: for −TΔS / −ΔH / −ΔG / Gal-1 binding affinity in words: phosphate buffer pH 7.2; for n-value: rounded/summary values in text, Gal-1 treated as a dimer for concentration input; for Kd in HEPES buffer (values not given): HEPES buffer containing 0.05% Tween-20, control titrations; for Gal-1 binding affinity in words: ITC in solution. (In general: Isothermal titration calorimetry measures the heat released or taken up as one component is titrated into another.)

Another experiment deals with his-tagged Gal-1 (Homo sapiens, UniProt P09382). The experiment is described as follows: Isothermal titration calorimetry, binding to his-tagged Gal-1. The following applies: for n (binding stoichiometry): lectin treated as a dimer; for agreement of titrations: his-tagged Gal-1 vs Gal-1 and previously reported value, ref [40].
Sequence of his-tagged Gal-1 (P09382 whole entry): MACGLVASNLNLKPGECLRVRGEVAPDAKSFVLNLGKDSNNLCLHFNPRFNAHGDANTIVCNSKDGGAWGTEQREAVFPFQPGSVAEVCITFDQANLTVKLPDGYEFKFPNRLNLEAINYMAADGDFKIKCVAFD
In experiment [2] the target is T2, Gal-3 (Galectin-3) (Homo sapiens, UniProt P17931). The experiment is described as follows: Binding to Gal-3. The settings on record: Gal-3 affinity greater than Gal-1 (Table 1 and Fig. S15).
T2 sequence (P17931 whole entry): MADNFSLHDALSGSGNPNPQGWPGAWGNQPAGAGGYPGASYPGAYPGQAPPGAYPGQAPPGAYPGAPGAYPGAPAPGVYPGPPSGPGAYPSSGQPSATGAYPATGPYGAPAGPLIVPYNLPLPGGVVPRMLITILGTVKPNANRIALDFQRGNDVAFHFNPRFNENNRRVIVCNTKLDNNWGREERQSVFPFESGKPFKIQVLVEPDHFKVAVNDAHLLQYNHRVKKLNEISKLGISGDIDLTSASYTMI
Experiment [3] addresses T1, Gal-1 (Galectin-1). The following applies: in solution, isothermal titration calorimetry, ref [16]; cited from earlier work.
Experiment [4] concerns the target T2, Gal-3 (Galectin-3). The settings on record: ref [34]; cited from earlier work.
A further experiment concerns Gal-1. The following applies: glycan microarray format, ref [29]; cited from earlier work.
The next experiment concerns Gal-1, His52 mutant. The following applies: mutagenesis of His52 enabled binding of TF; ref [16]; cited from earlier work.
For experiment [5], the system named is Gal-1 CRD in Gal-1/Gal-3 heterodimers. The settings on record: sequential model, at full loading, ref [48]; cited from earlier work.
For a further experiment, the target named is Galectin-3 (UniProt P17931 1-250). In words: ITC.
Sequence of Galectin-3 (P17931 whole entry): as above
In a further experiment the target is Galectin-1 (human, UniProt P09382 1-135). In words: ITC.
Sequence of Galectin-1 (P09382 whole entry): as the sequence (P09382 whole entry) above
Experiment [6] concerns the target histidine-tagged Galectin-1 (human, UniProt P09382 1-135). The experiment is described as follows: ITC.
Setting [7] is: ITC, 25 °C, one-set-of-sites model.
Setting [8] is: ITC, 25 °C, pH 7.2, ASF at 0.525 mM.
Where [9] appears, read: ITC, PEAQ-ITC, 25 °C, 20 mM phosphate, 10 mM NaCl, 10 mM β-mercaptoethanol, pH 7.2, one-set-of-sites model, [ligand] mM/[cell] μM: LacNAc 6.0/140, lactose 8.0/80, ASF 218/61 (so in the source), TF and Thr-TF 6.0/50.
Setting [10] is: second ASF titration: 0.700 mM ASF, 200 μM His-tag-Gal-1, ITC, 25 °C, pH 7.2.

This is an account of results in article PMC7680447 (Glycoconjugate journal, 2020).

Several values for one entry are separate records, joined by “and”; a condition that tells them apart may be missing. Identical values can stand only once. Entries after “also recorded” stand apart in the source; their conditions may differ. Like-named read-outs stand apart in the source and are kept apart here.

Sequence of histidine-tagged Galectin-1 (P09382 whole entry): as above
T1 sequence (P09382 whole entry): as above

Take `OC[C@H]1O[C@@H](O[C@H]2[C@H](O)[C@@H](O)C(O)O[C@@H]2CO)[C@H](O)[C@@H](O)[C@H]1O` (mixture of isomers) [Lactose, lactose]: on Gal-1 (Galectin-1) [1] (setting [7]), the “−TΔS” value is given as 7.09 kcal/mol and the “−ΔH” value is on record as 11.9 (± 0.906) kcal/mol. For the same molecule, the “n-value” at Gal-1 (Galectin-1) [1] was 2. At his-tagged Gal-1 (setting [8]), the “−TΔS” value turned out to be 4.04 kcal/mol, the “−ΔH” value was 8.67 (± 1.43) kcal/mol and the “n (binding stoichiometry)” value stood at 2.05. On his-tagged Gal-1, the agreement of titrations entry was “in agreement with values obtained for Gal-1 and previously reported value”.
Turning to `CC(=O)N[C@H]1C(O)O[C@H](CO)[C@@H](O[C@@H]2O[C@H](CO)[C@H](O)[C@H](O)[C@H]2O)[C@@H]1O` (some centres unmarked) [LacNAc, N-Acetyllactosamine], at Gal-1 (Galectin-1) [1], the “Kd in HEPES buffer (values not given)” value was “mirrored the values obtained in phosphate buffer” and the “n-value” is listed as 2. Besides, on Gal-1 (Galectin-1) [1] (setting [7]), the “−TΔS” value is 4.40 kcal/mol, the “−ΔG” value worked out at 5.57 kcal/mol and the “−ΔH” value is 9.97 (± 0.151) kcal/mol. Moreover, on Gal-1 (Galectin-1) [1] (setting [9]), the Ka came to 12000 M⁻¹ and the Kd (commonly the concentration at which binding is half-saturated) was determined as 0.083 mM. Also, on his-tagged Gal-1 (setting [8]), the “−TΔS” value is recorded as 4.27 kcal/mol, the “−ΔG” value came out at 5.53 kcal/mol, the “−ΔH” value was 9.79 (± 0.206) kcal/mol and the “n (binding stoichiometry)” value is on record as 2.02. Moreover, at his-tagged Gal-1, the agreement of titrations entry was “in agreement with values obtained for Gal-1 and previously reported value”. At Gal-3 (Galectin-3) [2], the “Gal-3 affinity relative to Gal-1” value was roughly 2 x.
For the molecule `CC(=O)N[C@@H](C=O)[C@@H](O[C@@H]1O[C@H](CO)[C@H](O)[C@H](O)[C@H]1O)[C@@H](O)[C@H](O)CO` [TF, 2-Acetamido-2-deoxy-3-O-β-D-galactopyranosyl-D-galactose], at Gal-1 (Galectin-1) [1], the affinity, expressed as Kd, was 3.8 mM. For the same molecule, the “Gal-1 binding affinity in words” value on Gal-1 (Galectin-1) [1] (25 °C, listed as TF disaccharide) is “binding by Gal-1 in mM range; also recorded: failed to recognize TF disaccharide and Thr-TF (TF antigen) beyond the millimolar affinity”. Besides, at Gal-1 (Galectin-1) [1] (setting [7]), the “−TΔS” value is 13.4 kcal/mol, the “−ΔG” value is 3.30 kcal/mol and the “−ΔH” value is reported as 16.7 (± 0.221) kcal/mol. The molecule further displayed a Ka on Gal-1 (Galectin-1) [1] (setting [9]) of 260 M⁻¹. Also, at Gal-1 (Galectin-1) [3], the “Gal-1 recognition of TF antigen by ITC (Bian et al.)” value was “failed to observe Gal-1 recognition of the TF antigen in solution beyond millimolar affinity”. Moreover, at Gal-3 (Galectin-3) [4], the “Thermodynamic driving force of Gal-3 binding” value is “enthalpy-driven”. Also, in the experiment with Gal-1, the “Gal-1 binding to TF antigen, glycan microarray” value was “did not bind significantly”. Besides, the “Affinity of TF for His52-mutated Gal-1” value in the experiment on Gal-1, His52 mutant was “high μM affinity”. The “Affinity of the Gal-1 CRD for TF” value in [5] was “high mM range”.
Take `CC(=O)NC1C(OC(C)C(N)C(=O)O)OC(CO)C(O)C1OC1OC(CO)C(O)C(O)C1O` (centres unmarked) [Thr-TF, Gal1–3βGalNAcα1-O-Thr]: on Gal-1 (Galectin-1) [1] (25 °C), the “Gal-1 binding affinity in words” value was “failed to recognize TF disaccharide and Thr-TF (TF antigen) beyond the millimolar affinity”. For the same molecule, on Gal-1 (Galectin-1) [1] (25 °C, listed as Thr-TF antigen), the “Gal-1 binding affinity in words” value is reported as “binding by Gal-1 in mM range”. Further, at Gal-1 (Galectin-1) [1] (setting [7]), the “−TΔS” value was found to be 13.3 kcal/mol, the “−ΔG” value turned out to be 3.28 kcal/mol and the “−ΔH” value is reported as 16.6 (± 0.269) kcal/mol. For the same molecule, on Gal-1 (Galectin-1) [1] (setting [9]), the Ka was determined as 250 M⁻¹ and the Kd amounted to 3.96 mM.
Turning to “ASF: Asialofetuin from fetal calf serum Type 1, a glycoprotein with three triantennary LacNAc presentations”, the “Kd in HEPES buffer (values not given)” value with Gal-1 (Galectin-1) [1] was “mirrored the values obtained in phosphate buffer”. Moreover, the “Gal-1 binding affinity in words” value with Gal-1 (Galectin-1) [1] (25 °C) is reported as “remained in the uM range; also recorded: low micromolar affinity”. Also, in the experiment with Gal-1 (Galectin-1) [1] (setting [7]), the “−TΔS” value is on record as 58.2 kcal/mol and the “−ΔG” value is 7.15 kcal/mol. Besides, in the experiment with Gal-1 (Galectin-1) [1] (setting [9]), the Ka came out at 174000 M⁻¹ and the Kd came to 0.00576 mM. Further, in the experiment with his-tagged Gal-1 (setting [8]), the “−TΔS” value was found to be 50.1 kcal/mol and the “−ΔG” value amounted to 7.37 kcal/mol. Further, in the experiment with his-tagged Gal-1, the agreement of titrations entry was “in agreement with values obtained for Gal-1 and previously reported value”. Besides, in the experiment with his-tagged Gal-1 (setting [10]), the Ka came out at 340100 M⁻¹, binding was put at a Kd of 2.94 µM, the “−TΔS” value is given as 49.6 kcal/mol and the “−ΔG” value is reported as 7.55 kcal/mol.

B1: Asialofetuin (ASF) from fetal calf serum Type 1 (natural protein, bovine (from fetal calf serum), UniProt P12763 19-359, looked up)
chain: IPLDPVAGYKEPACDDPDTEQAALAAVDYINKHLPRGYKHTLNQIDSVKVWPRRPTGEVYDIEIDTLETTCHVLDPTPLANCSVRQQTQHAVEGDCDIHVLKQDGQFSVLFTKCDSSPDSAEDVRKLCPDCPLLAPLNDSRVVHAVEVALATFNAESNGSYLQLVEISRAQFVPLPVSVSVEFAVAATDCIAKEVVDPTKCNLLAEKQYGFCKGSVIQKALGGEDVRVTCTLFQTQPVIPQPQPDGAEAEAPSAVPDAAGPTPSAAGPPVASVVVGPSVVAVPLPLHRAHYDLRHTFSGVASVESSSGEAFHVGKTPIVGQPSIPGGPVRLCPGRIRYFKI
modifications: desialylated glycoprotein with three triantennary LacNAc presentations (glycan valency of nine)
With B1, the “fold affinity for ASF against Gal-1” value in the experiment with Galectin-3 is roughly 12 fold. In the experiment with Galectin-1, the “-dH” value turned out to be 65.4 ± 1.42 kcal/mol and the stoichiometry N – broadly, a count of units in the complex or per binding partner – turned out to be 0.222. In experiment [6], the “-dH” value is 57.1 kcal/mol and 57.5 kcal/mol; the “stoichiometry N” value is 0.274 and 0.283.
